Test results published in patent publication US10065990B2, “Cyclic peptide compound, and preparation method, pharmaceutical composition and use thereof” (HANGZHOU GUANYU BIO-MEDICAL CO., LTD, priority 2013, dated 2018).
Like-named read-outs stand apart in the source and are kept apart here.

Tests used:
HDAC8 = target: T1, HDAC8 (Homo sapiens, UniProt Q9BY41); experiment: HDAC biochemical activity measurement (fluorescent substrate deacetylation); conditions: 37° C. 30 minutes
T1 sequence (Q9BY41 1-377): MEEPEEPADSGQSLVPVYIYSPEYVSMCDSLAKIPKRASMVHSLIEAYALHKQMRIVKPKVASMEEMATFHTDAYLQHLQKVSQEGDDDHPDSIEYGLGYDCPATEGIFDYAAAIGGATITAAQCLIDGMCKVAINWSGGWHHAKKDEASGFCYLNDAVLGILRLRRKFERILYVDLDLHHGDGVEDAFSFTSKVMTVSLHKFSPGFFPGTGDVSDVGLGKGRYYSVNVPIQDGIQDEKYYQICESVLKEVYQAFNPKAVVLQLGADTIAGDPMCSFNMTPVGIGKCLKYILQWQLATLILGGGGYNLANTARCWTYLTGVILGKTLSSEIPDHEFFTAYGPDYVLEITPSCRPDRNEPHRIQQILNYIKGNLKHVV

HDAC3 = HDAC3 (Homo sapiens, UniProt O15379); experiment: as above;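 also: fluorogenic acetyl-lysine substrate (20 µM) deacetylated by HDAC3, then developer added for 15 min at room temperature, release of fluorophore read at excitation 360 nm, emission 460 nm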
Procedure: (§2) The chemical activity of the compound is determined according to the degree of deacetylation inhibition of the HDAC enzyme. This experiment measured the degree of deacetylation related to tumor proliferation and metastasis of HDAC1, HDAC2, HDAC3, HDAC8, HDAC11 five subtypes HDAC enzymes. After the substrate containing an acetylated lysine side chain and HDAC enzyme are labeled with a fluorescent label, the fluorescent substrate is de acetyl. The fluorescent labeled substrate is cleaved by the enzyme, and the fluorescent substance is released, which generates 460 nm emission light under the excitation of 360 nm light.
(§3) HDAC substrate was diluted with reaction buffer to 200M (reaction concentration of 20M), the HDAC enzyme was diluted to the appropriate concentration, then added different concentrations of the test compounds and acted at 37° C. 30 minutes, and then added the same volume of 2-times concentration substrate developing solution (developer), incubated at room temperature for 15 minutes.

HDAC1 = HDAC1 (Homo sapiens, UniProt Q13547); experiment: as above
Procedure: as §2, §3

HDAC2 = HDAC2 (Homo sapiens, UniProt Q92769); experiment: as above; conditions: 37° C. 30 minutes;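 also: HDAC2 enzyme with an acetyl-lysine fluorescent substrate, then developer added, fluorescence read at excitation 360 nm and emission 460 nm, inhibition measured across several compound concentrations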
HDAC11 = target: T2, HDAC11 (Homo sapiens, UniProt Q96DB2); experiment: as above;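 also: HDAC11 enzyme acting on an acetyl-lysine fluorogenic substrate, then a developer frees the fluorophore, read at excitation 360 nm and emission 460 nm, IC50 over a compound dilution series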
T2 sequence (Q96DB2 1-347): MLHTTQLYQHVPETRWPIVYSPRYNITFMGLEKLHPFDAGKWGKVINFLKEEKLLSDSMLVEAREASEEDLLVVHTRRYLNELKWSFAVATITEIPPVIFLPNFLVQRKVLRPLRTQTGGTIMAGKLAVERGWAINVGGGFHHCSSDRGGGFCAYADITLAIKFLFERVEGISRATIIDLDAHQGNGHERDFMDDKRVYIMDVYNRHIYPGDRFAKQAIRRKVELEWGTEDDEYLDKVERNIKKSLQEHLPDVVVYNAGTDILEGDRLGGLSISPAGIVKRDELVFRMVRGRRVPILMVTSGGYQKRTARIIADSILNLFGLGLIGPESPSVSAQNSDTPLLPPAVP

HDAC7 = target: T3, HDAC7 (Homo sapiens, UniProt Q8WUI4); experiment: as above; conditions: HDAC7; 37° C. 30 minutes;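 also: fluorogenic deacetylation assay using acetyl-lysine substrate at 20 µM, enzyme and compound incubated 30 min at 37 °C, then developer added, fluorescence read at 360/460 nm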
T3 sequence (Q8WUI4 1-952): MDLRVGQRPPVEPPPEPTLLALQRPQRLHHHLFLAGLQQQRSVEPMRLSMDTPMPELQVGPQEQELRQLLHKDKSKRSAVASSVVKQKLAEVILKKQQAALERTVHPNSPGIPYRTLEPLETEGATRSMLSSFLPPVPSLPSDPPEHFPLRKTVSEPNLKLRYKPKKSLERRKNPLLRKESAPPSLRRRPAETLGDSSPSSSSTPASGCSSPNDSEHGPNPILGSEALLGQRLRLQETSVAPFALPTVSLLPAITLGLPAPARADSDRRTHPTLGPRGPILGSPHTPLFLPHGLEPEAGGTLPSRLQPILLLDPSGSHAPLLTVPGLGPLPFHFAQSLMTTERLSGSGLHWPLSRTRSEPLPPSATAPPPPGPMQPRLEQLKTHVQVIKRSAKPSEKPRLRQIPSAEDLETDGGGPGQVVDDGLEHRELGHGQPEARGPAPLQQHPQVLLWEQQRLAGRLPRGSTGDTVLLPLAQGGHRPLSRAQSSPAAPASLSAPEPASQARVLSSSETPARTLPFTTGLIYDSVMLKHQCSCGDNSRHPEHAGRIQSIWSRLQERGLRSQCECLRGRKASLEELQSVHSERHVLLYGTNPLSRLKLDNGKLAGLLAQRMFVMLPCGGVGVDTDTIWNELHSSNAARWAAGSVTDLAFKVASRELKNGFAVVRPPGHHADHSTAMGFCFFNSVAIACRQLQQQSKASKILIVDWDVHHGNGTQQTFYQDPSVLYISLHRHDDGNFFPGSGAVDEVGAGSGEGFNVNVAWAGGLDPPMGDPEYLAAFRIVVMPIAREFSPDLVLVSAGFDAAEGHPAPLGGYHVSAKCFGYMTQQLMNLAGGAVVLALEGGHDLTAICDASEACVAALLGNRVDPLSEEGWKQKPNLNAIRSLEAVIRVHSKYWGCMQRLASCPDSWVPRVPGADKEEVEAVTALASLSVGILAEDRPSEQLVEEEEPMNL

[1] = tested on: K562 (human leukemia cells); experiment: MTT cancer cell growth inhibition; assay type: cell-based; conditions: Homo sapiens, K562, 72 h, MTT, 72 hours incubation, K562 cells; read-out: GI50 K562
Outline: (§1)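 Cells seeded at 1500/well in DMEM or RPMI 1640 with 10% FBS, incubated overnight, then exposed to compound at 10^−5 to 10^−10 M final in triplicate for 72 h at 37° C, 5% CO2. MTT added for 4 h, formazan dissolved in DMSO, absorbance read at 570 nm; GI50 derived from viability.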

[2] = tested on: MOLT-4 (human acute lymphoblastic leukemia cells); experiment: MTT cancer cell growth inhibition; assay type: cell-based; conditions: Homo sapiens, MOLT-4, 72 h, MTT, 72 hours incubation, read-out: GI50 Mol
Outline: as §1

[3] = tested on: lncap (prostate cancer cells); experiment: MTT cancer cell growth inhibition; assay type: cell-based; conditions: Homo sapiens, LNCaP, 72 h, MTT, 72 hours incubation, read-out: GI50 lnca
Outline: as §1

[4] = tested on: N-87 (human gastric cancer cells); experiment: MTT cancer cell growth inhibition; assay type: cell-based; conditions: Homo sapiens, 72 h, MTT, 72 hours incubation, N-87 cells; read-out: GI50 N-87
Outline: as §1

[5] = tested on: MCF-7 (human breast cancer cells); experiment: MTT cancer cell growth inhibition; assay type: cell-based; conditions: Homo sapiens, MCF7, 72 h, 72 hours incubation, read-out: GI50 MCF
Outline: as §1

[6] = HDAC1, 37° C. 30 minutes, read-out: IC50 HDAC1
[7] = read-out: IC50 HDAC3, HDAC3, 37° C. 30 minutes
[8] = Table 3, column C, read-out: IC50 HDAC1, C (six-membered ring with substituents)
[9] = read-out: IC50 HDAC11, HDAC11, 37° C. 30 minutes
[10] = Table 3, read-out: IC50 HDAC1, D (non-substituent)
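For IC50 HDAC1 in this document: fluorogenic acetyl-lysine substrate (20 µM) deacetylated by HDAC1, then developer releases fluorophore read at 360 nm excitation and 460 nm emission, inhibitor incubated 30 min at 37 °C.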
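For IC50 HDAC1, C (six-membered ring with substituents) in this document: fluorogenic acetyl-lysine substrate (20 µM) deacetylated by HDAC1, then developer releases fluorophore read at 360 nm excitation and 460 nm emission, inhibitor incubated 30 min at 37 °C.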
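For IC50 HDAC1, D (non-substituent) in this document: fluorogenic acetyl-lysine substrate (20 µM) deacetylated by HDAC1, then developer releases fluorophore read at 360 nm excitation and 460 nm emission, inhibitor incubated 30 min at 37 °C.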

HDAC2, sequence (Q92769 whole entry, species assumed): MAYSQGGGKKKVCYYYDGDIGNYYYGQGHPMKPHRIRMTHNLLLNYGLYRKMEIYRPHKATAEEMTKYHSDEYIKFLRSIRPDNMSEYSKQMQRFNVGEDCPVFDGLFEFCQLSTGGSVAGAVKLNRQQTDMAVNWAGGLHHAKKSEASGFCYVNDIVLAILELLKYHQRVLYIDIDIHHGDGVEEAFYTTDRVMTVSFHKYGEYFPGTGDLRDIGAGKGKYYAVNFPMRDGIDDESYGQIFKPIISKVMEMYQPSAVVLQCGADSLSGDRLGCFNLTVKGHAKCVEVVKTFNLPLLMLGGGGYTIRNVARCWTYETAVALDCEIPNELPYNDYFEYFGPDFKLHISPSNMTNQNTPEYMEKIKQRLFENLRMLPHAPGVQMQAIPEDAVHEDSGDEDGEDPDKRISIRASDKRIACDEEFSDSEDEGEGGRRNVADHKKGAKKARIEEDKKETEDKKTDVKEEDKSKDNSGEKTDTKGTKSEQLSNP
HDAC3, sequence (O15379 whole entry, species assumed): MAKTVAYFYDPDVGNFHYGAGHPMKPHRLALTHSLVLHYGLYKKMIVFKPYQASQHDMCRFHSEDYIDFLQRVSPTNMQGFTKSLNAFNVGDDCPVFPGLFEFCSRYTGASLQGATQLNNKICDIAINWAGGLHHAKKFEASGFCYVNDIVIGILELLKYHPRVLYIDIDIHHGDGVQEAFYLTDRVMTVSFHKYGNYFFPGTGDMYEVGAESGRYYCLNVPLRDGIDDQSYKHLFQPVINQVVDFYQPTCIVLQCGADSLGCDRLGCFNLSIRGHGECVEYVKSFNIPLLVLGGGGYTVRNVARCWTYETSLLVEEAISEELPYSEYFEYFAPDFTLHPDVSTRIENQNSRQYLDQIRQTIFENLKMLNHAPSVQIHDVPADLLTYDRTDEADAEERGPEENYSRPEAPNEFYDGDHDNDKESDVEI
HDAC3, sequence (Q9Y618 395-489 partner limits assumed, species assumed): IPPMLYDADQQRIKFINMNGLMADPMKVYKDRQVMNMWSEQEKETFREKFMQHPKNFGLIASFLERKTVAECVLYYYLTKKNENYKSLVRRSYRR
HDAC1, sequence (Q13547 whole entry, species assumed): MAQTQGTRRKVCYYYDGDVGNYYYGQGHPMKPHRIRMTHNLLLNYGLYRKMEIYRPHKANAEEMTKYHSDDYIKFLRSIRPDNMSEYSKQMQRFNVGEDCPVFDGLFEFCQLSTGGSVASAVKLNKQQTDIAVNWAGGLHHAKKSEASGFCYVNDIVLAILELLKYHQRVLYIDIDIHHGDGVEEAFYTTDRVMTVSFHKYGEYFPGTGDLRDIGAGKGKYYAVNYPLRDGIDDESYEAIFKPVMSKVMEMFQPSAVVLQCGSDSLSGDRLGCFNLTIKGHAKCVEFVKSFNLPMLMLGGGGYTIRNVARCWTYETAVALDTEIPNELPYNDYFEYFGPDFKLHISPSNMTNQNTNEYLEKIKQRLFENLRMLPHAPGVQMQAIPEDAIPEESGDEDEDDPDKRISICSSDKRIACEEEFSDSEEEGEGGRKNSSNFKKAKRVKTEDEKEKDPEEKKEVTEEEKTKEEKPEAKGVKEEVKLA

Compound	IC50 (HDAC8) [nM]	IC50 (HDAC3) [nM]	IC50 (HDAC1; [6]) [nM]	IC50 (HDAC2) [nM]	IC50 (HDAC11) [nM]	IC50 HDAC7 (HDAC7)	GI50 [1] [nM]	GI50 [2] [nM]	GI50 [3] [nM]	GI50 [4] [nM]	GI50 [5] [nM]	GI50 ([2]; MOLT-4 cells) [nM]	GI50 ([3]; lncap cells) [nM]	GI50 ([5]; MCF-7 cells) [nM]	IC50 (HDAC3; [7]) [nM]	IC50 (HDAC1; [8]) [nM]	IC50 (HDAC11; [9]) [nM]	IC50 (HDAC1; [10]) [nM]
C/C=C1\NC(=O)c2ccc(F)c(n2)CNC(=O)C[C@@H](/C=C/CCSC(C)=O)OC(=O)[C@H](CCCCNC(=O)OCC2c3ccccc3-c3ccccc32)NC1=O [Example 77]	37	26	94	29	88	no activity	42	20	20	52	30							
C/C=C1\NC(=O)c2ccc(SC)c(n2)CNC(=O)C[C@@H](/C=C/CCSC(=O)CCCCCCC)OC(=O)[C@H](CC)NC1=O [Compound 173]	39	37		31	97	no activity	53			83		30	40	20				
C/C=C1\NC(=O)c2nc(ccc2F)CNC(=O)C[C@@H](/C=C/CCSC(C)=O)OC(=O)[C@H](Cc2cccc3ccccc23)NC1=O [Compound 78]	39		63	37		no activity	46	20	20	61	10				38	63	94	
C/C=C1\NC(=O)c2cccc(n2)CNC(=O)C[C@@H](/C=C/CCSC(=O)CCCCCC)OC(=O)[C@H](C(C)C)NC1=O [Compound 2]	252		192	163		no activity	51			29	30				177		102	192
C/C=C1\NC(=O)c2cc(F)cc(n2)CNC(=O)C[C@@H](/C=C/CCSC(C)=O)OC(=O)[C@H](Cc2cccc3ccccc23)NC1=O [Example 79]	42	27	57	19	93	no activity	27	30	30	22	20							
CC(=O)SCC/C=C/[C@@H]1CC(=O)NCc2cc(F)cc(n2)C(=O)NC(=C(C)C)C(=O)N[C@@H](C(C)C)C(=O)O1 [Compound 88]	43		31	35		no activity	34	30	30	31	20				41	31	94	
C/C=C1\NC(=O)c2cccc(n2)CNC(=O)C[C@@H](/C=C/CCSC(=O)CCCCC)OC(=O)[C@H](C(C)C)NC1=O [Compound 3]	169	145	171	158	100	no activity	37			43	30							171
C/C=C1\NC(=O)c2cc(F)cc(n2)CNC(=O)C[C@@H](/C=C/CCSC(C)=O)OC(=O)[C@H](Cc2ccc(O)cc2)NC1=O [Example 82]	34	53	94	49	92	no activity	36	20	20	26	30							

Compounds with a lower IC50 (HDAC8), results first:

IC50 (HDAC8) [nM]	IC50 (HDAC3) [nM]	IC50 (HDAC1; [6]) [nM]	IC50 (HDAC2) [nM]	IC50 (HDAC11) [nM]	IC50 HDAC7 (HDAC7)	GI50 [1] [nM]	GI50 [2] [nM]	GI50 [3] [nM]	GI50 [4] [nM]	GI50 [5] [nM]	GI50 ([2]; MOLT-4 cells) [nM]	GI50 ([3]; lncap cells) [nM]	GI50 ([5]; MCF-7 cells) [nM]	IC50 (HDAC3; [7]) [nM]	IC50 (HDAC1; [8]) [nM]	IC50 (HDAC11; [9]) [nM]	IC50 (HDAC1; [10]) [nM]	Compound
29		42	43		no activity	35	20	20	19	20				29	42	91		C=C1NC(=O)c2nc(ccc2F)CNC(=O)C[C@@H](/C=C/CCSC(C)=O)OC(=O)[C@H](C(C)C)NC1=O [Compound 84]
26		37	31		no activity	29	30	30	35	30				16	37	95		C/C=C1\NC(=O)c2nc(ccc2F)CNC(=O)C[C@@H](/C=C/CCSC(C)=O)OC(=O)[C@H](Cc2ccc(O)cc2)NC1=O [Compound 81]
16	28		34	92	no activity	39	30	30	51	20								C/C=C1\NC(=O)c2cc(C)cc(n2)CNC(=O)C[C@@H](/C=C/CCSC(C)=O)OC(=O)[C@H](Cc2ccccc2)NC1=O [Example 67]
